Results published in patent publication EP0812190B1 (priority 1993, dated 1995).
Where two headings read alike, the source gives them in different places.

Assays:
MAO-B [1] = target: T1, MAO-B (Rattus norvegicus, UniProt P19643); assay: in vivo; conditions: po, read-out: inhibition of brain MAO-B
T1 sequence (P19643 1-520): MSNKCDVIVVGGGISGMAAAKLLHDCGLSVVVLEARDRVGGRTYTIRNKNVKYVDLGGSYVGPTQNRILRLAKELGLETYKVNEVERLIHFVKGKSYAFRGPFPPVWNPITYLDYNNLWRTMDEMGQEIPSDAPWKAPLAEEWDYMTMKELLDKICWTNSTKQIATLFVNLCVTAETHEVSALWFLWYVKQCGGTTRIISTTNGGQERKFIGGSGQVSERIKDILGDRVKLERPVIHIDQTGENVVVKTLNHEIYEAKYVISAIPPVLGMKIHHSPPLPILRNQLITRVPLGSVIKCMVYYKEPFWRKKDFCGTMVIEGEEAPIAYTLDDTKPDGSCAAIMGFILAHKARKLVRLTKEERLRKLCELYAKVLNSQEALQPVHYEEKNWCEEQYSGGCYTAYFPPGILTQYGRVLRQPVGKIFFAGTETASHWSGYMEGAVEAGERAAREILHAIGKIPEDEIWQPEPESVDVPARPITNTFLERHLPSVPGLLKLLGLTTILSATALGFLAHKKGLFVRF
Protocol: (+)PAI or the racemic mixture at three dose levels (0.05, 0.1 and 0.5mg/kg) by oral administration, one dose daily for 21 days, and decapitated 2 hours after the last dose.

MAO-B [2] = target: T1, MAO-B; conditions: 1 mg/kg i.p. single dose; whole brain
Protocol: Activity of MAO-B was determined in whole brain tissues as described hereinabove.

[3] = tested on: MPTP-induced striatal dopamine depletions; assay: Suppression of MPTP-induced dopaminergic toxicity (striatal DA and DOPAC); assay type: in vivo, mice; conditions: striatum
Protocol: Brains were removed and corpora striata dissected on an ice-cold glass plate and frozen on dry ice. Striatal tissues were homogenized in 0.1 M perchloric acid, and deproteinized aliquots containing dihydroxybenzylamine as an internal standard were assayed for dopamine and its major metabolite 3,4-dihydroxy-phenylacetic acid (DOPAC) using HPLC with electrochemical detection.

[4] = tested on: amphetamine-induced stereotype behavior; conditions: 0.5 mg/kg/day in drinking water, lateral head movements over 1 minute
Protocol: The extent of this behavior is rated in accordance with the number of lateral head movements over a period of 1 minute.
Following that, amphetamine was injected s.c. at a dose of 0.5 mg/kg. 45 minutes later, lateral head movements were counted.

guinea-pig ileum = assay: tissue or blood; conditions: Cavia porcellus, read-out: Percent relaxation
MAO-A = target: T2, MAO-A (Rattus norvegicus, UniProt P21396); assay: Inhibition of MAO activity in vivo, acute treatment, MAO-A; parameters: MAO activity determined in brain and liver using the general technique described above; from tissue; host or cells: brain and liver of treated rats
T2 sequence (P21396 1-526): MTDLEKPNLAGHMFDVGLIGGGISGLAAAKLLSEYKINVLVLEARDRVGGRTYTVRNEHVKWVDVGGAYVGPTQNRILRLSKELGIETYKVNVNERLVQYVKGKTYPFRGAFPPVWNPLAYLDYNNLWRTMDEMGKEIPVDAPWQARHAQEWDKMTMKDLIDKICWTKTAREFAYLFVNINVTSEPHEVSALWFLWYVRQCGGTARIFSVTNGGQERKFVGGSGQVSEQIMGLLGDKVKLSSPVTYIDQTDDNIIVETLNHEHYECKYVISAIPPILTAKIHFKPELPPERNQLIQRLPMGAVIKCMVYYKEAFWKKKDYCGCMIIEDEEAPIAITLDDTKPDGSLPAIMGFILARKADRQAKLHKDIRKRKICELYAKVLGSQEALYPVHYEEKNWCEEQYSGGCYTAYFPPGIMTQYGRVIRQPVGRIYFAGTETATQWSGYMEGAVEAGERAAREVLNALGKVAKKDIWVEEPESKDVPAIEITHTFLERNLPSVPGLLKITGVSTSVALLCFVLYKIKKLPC
Protocol: Groups of three rats were used for each dose level of inhibitor, and MAO activity determined in brain and liver using the general technique described above. The amount of protein in each incubation was determined using the Folin-Lowry method, and enzyme activity calculated as nmol of substrate metabolized per hour of incubation for each mg of protein. Activity of MAO in tissues from animals treated with inhibitors was expressed as a percentage of the enzyme activity in a group of control animals administered vehicle (water for oral administration, 0.9% saline for ip injection) and killed as above.

[5] = dose producing 50% inhibition, rat, i.p., 1h
[6] = dose producing 50% inhibition, rat, p.o., 2h

SMILES: C#CCN[C@@H]1CCc2ccccc21 [[R](+)PAI, R(+)-N-propargyl-1-aminoindan]
- inhibition at 0.1 mg/kg (MAO-B [1]): > 80%
- time of maximal inhibition of MAO-B after injection (MAO-B [2]): 6 h
- DOPAC ([3]; drug alone (PAI isomers […] i.p., deprenyl 5 mg/kg i.p.)): 3.3±0.3 ng/mg protein
- DA ([3]; drug alone (PAI isomers […] i.p., deprenyl 5 mg/kg i.p.), Mean±S.E.M.): 185.0±6.9 ng/mg protein
- DA ([3]; pretreatment one hour before MPTP-HCl 30 mg/kg s.c. (PAI isomers […] i.p., deprenyl 5 mg/kg i.p.), 5 days later): 177.8±14.4 ng/mg protein
- DOPAC ([3]; pretreatment one hour before MPTP-HCl 30 mg/kg s.c., 5 days later): 6.0±0.3 ng/mg protein
- Stereotype Behavior Rating ([4]; control senescent rats, 45 min after amphetamine 0.5 mg/kg s.c.): 126±16
- Stereotype Behavior Rating ([4]; hypoxia lesioned senescent rats): 143±6
- inhibition at 60 µM (guinea-pig ileum): 25 to 50%
- inhibition of MAO-A activity (MAO-A; brain, 0.5mg/kg i.p., single dose): 20%
- inhibition of MAO-A (MAO-A; brain, 0.5mg/kg oral, single dose): no detectable inhibition
- IC-50 MAO-A I.P. BRAIN (MAO-A; [5]): 1.2 mg/kg
- IC-50 MAO-A I.P. LIVER (MAO-A; [5]): 5 mg/kg
- IC-50 MAO-A P.O. BRAIN (MAO-A; [6]): >5 mg/kg
- IC-50 MAO-A P.O. LIVER (MAO-A; [6]): >5 mg/kg
